Experiment: Inhibition of LPS-induced macrophagic NOS at 100 uM

Compound: N=C(N)Nc1cccnc1
- inhibition: 50%
